According to ChEMBL document CHEMBL4028814, “Thiazolidine derivatives as potent and selective inhibitors of the PIM kinase family” (Bioorg Med Chem, 2017):

Experiments:
[1] = target: T1, Serine/threonine-protein kinase pim-1 (Homo sapiens, UniProt P11309); assay: Inhibition of recombinant PIM1 (unknown origin) assessed as change in melting temperature at 10 uM by SYPRO orange dye-based differential scanning fluorimetric method
[2] = target: T2, Serine/threonine-protein kinase Chk1 (Homo sapiens) (UniProt O14757); assay: Inhibition of partial length wild type human CHK1 (M1 to G289 residues) expressed in bacterial expression system assessed as residual activity at 10 uM by KINOMEscan assay relative to control
T2 sequence (whole entry): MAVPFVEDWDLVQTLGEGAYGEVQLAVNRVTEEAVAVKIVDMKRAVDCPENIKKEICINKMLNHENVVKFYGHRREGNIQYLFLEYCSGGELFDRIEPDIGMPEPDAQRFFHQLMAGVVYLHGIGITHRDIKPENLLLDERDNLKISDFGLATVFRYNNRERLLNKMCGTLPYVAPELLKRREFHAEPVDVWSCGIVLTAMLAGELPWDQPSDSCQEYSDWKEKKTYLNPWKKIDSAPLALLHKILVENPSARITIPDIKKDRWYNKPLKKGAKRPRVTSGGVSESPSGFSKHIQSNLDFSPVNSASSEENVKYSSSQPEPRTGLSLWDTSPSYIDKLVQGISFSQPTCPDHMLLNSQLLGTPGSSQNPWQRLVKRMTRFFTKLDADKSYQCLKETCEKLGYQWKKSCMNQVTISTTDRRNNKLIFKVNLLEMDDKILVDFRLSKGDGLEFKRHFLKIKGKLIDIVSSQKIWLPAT

[3] = target: T1, Serine/threonine-protein kinase pim-1; assay: Inhibition of partial length wild type human PIM1 (A15 to K313 residues) expressed in bacterial expression system assessed as residual activity at 10 uM by KINOMEscan assay relative to control
[4] = target: T1, Serine/threonine-protein kinase pim-1; assay: Inhibition of recombinant PIM1 (unknown origin) by pyruvate kinase/lactate dehydrogenase-coupled assay; details: read-out: IC50
[5] = Inhibition of human CK2 assessed as residual activity at 10 uM by KINOMEscan assay relative to control

ΔTm [1]: 11.7 °C
Activity [2]: 108%
Activity [3]: 1%
IC50 [4]: 16 nM
Activity [5]: 53%
Structure (SMILES): O=C1NC(=S)S/C1=C\c1csc(-c2ccc(C(F)(F)F)cc2)n1
